Assay results from patent US20110224210A1, “NOVEL BIS-AMIDES AS ANTI-MALARIAL AGENTS” (priority 2008, published 2011).

These compounds were tested on P. falciparum K1 (strain resistant to chloroquine and pyrimethamine), erythrocytic stages (assay: Plasmodium falciparum in vitro assay, [3H] hypoxanthine incorporation). Settings: Plasmodium falciparum, K1, P. falciparum strain K1; [3H] hypoxanthine incorporation; read-out: IC50 (nM) on K1.
Assay type: cell-based
How it was run: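 K1 strain parasites grown in human red cells, 2.5% haematocrit, 0.3% parasitaemia, 37 °C, 4% CO2/3% O2; compounds in seven serial doubling dilutions.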

Structure (SMILES)	IC50 [nM]
O=C([C@H](Cc1ccccc1)N(Cc1ccc(-c2ccccn2)cc1)C(=O)C=Cc1ccc(C(F)(F)F)nc1)N1Cc2ccccc2C1 [Example 58, (S)-N-[1-Benzyl-2-(1,3-dihydro-isoindol-2-yl)-2-oxo-ethyl]-N-(4-pyridin-2-yl-benzyl)-3-(6-trifluoromethyl-pyridin-3-yl)-acrylamide]	50
COCCN(C)C(=O)[C@H](Cc1ccccc1)N(Cc1ccc(-c2ccccn2)cc1)C(=O)C=Cc1ccc(Cl)nc1 [Example 85, (S)-3-(6-Chloro-pyridin-3-yl)-N-{1-[(2-methoxy-ethyl)-methyl-carbamoyl]-2-phenyl-ethyl}-N-(4-pyridin-2-yl-benzyl)-acrylamide]	31
COCCN(C)C(=O)[C@H](Cc1ccccc1)N(Cc1ccc(N2CCOCC2)cc1)C(=O)C=Cc1ccc(OC)nc1 [Example 71, (S)-N-{1-[(2-Methoxy-ethyl)-methyl-carbamoyl]-2-phenyl-ethyl}-3-(6-methoxy-pyridin-3-yl)-N-(4-morpholin-4-yl-benzyl)-acrylamide]	54
COCCN(C)C(=O)[C@H](Cc1ccccc1)N(Cc1ccc(N2CCOCC2)cc1)C(=O)C=Cc1cnc(C)n1C [Example 61, (S)-3-(2,3-Dimethyl-3H-imidazol-4-yl)-N-{1-[(2-methoxy-ethyl)-methyl-carbamoyl]-2-phenyl-ethyl}-N-(4-morpholin-4-yl-benzyl)-acrylamide]	464
COCCN(C)C(=O)[C@H](Cc1ccccc1)N(Cc1ccc(N2CCOCC2)cc1)C(=O)C=Cc1csc(C)n1 [Example 62, (S)-N-{1-[(2-Methoxy-ethyl)-methyl-carbamoyl]-2-phenyl-ethyl}-3-(2-methyl-thiazol-4-yl)-N-(4-morpholin-4-yl-benzyl)-acrylamide]	138
COCCN(C)C(=O)[C@H](Cc1ccccc1)N(Cc1ccc(N2CCOCC2)cc1)C(=O)C=Cc1c(C)noc1C [Example 64, (S)-3-(3,5-Dimethyl-isoxazol-4-yl)-N-{1-[(2-methoxy-ethyl)-methyl-carbamoyl]-2-phenyl-ethyl}-N-(4-morpholin-4-yl-benzyl)-acrylamide]	180
Cc1nn(C)c(C)c1C=CC(=O)N(Cc1ccc(-c2ccccn2)cc1)[C@@H](Cc1ccccc1)C(=O)N1CCC(N(C)C)CC1 [Example 9, (S)-N-[1-Benzyl-2-(4-dimethylamino-piperidin-1-yl)-2-oxo-ethyl]-N-(4-pyridin-2-yl-benzyl)-3-(1,3,5-trimethyl-1H-pyrazol-4-yl)-acrylamide]	69
Cc1ccc(C=CC(=O)N(Cc2ccc(-c3ccccn3)cc2)[C@@H](Cc2ccccc2)C(=O)N2CCC(N(C)C)CC2)nc1 [Example 15, (S)-N-[1-Benzyl-2-(4-dimethylamino-piperidin-1-yl)-2-oxo-ethyl]-3-(5-methyl-pyridin-2-yl)-N-(4-pyridin-2-yl-benzyl)-acrylamide]	163
Cc1ccc(C=CC(=O)N(Cc2ccc(-c3ccncc3)cc2)[C@@H](Cc2ccccc2)C(=O)N2CCC(N(C)C)CC2)nc1 [Example 28, (S)-N-[1-Benzyl-2-(4-dimethylamino-piperidin-1-yl)-2-oxo-ethyl]-3-(5-methyl-pyridin-2-yl)-N-(4-pyridin-4-yl-benzyl)-acrylamide]	81
Cc1nc(C)c(C=CC(=O)N(Cc2ccc(-c3cncnc3)cc2)[C@@H](Cc2ccccc2)C(=O)N2CCC(N(C)C)CC2)s1 [Example 37, (S)-N-[1-Benzyl-2-(4-dimethylamino-piperidin-1-yl)-2-oxo-ethyl]-3-(2,4-dimethyl-thiazol-5-yl)-N-(4-pyrimidin-5-yl-benzyl)-acrylamide]	279
COc1ccc(C=CC(=O)N(Cc2ccc(-c3ccncc3)cc2)[C@@H](Cc2ccccc2)C(=O)N2CCC(N(C)C)CC2)cn1 [Example 29, (S)-N-[1-Benzyl-2-(4-dimethylamino-piperidin-1-yl)-2-oxo-ethyl]-3-(6-methoxy-pyridin-3-yl)-N-(4-pyridin-4-yl-benzyl)-acrylamide]	34

The remaining lines, values ahead:

IC50 [nM]	Structure (SMILES)
26	O=C([C@H](Cc1ccccc1)N(Cc1ccc(-c2ccccn2)cc1)C(=O)C=Cc1ccc(C(F)(F)F)cc1)N1CCc2cccnc2C1 [Example 149, (S)-N-[1-Benzyl-2-(5,8-dihydro-6H-[1,7]naphthyridin-7-yl)-2-oxo-ethyl]-N-(4-pyridin-2-yl-benzyl)-3-(4-trifluoromethyl-phenyl)-acrylamide]
87	CC(=O)N1CCN(c2ccc(CN(C(=O)C=Cc3ccc(C(F)(F)F)cc3)[C@@H](Cc3ccccc3)C(=O)N(C)CCN(C)Cc3ccc4c(c3)OCCN4C)cc2)CC1 [Example 245, (S)-N-[4-(4-Acetyl-piperazin-1-yl)-benzyl]-N-[1-(methyl-{2-[methyl-(4-methyl-3,4-dihydro-2H-benzo[1,4]oxazin-7-ylmethyl)-amino]-ethyl}-carbamoyl)-2-phenyl-ethyl]-3-(4-trifluoromethyl-phenyl)-acrylamide]
17	CC(C)Oc1ccc(CN(C)CCN(C)C(=O)[C@H](Cc2ccccc2)N(Cc2ccc(N3CCOCC3)cc2)C(=O)C=Cc2ccc(C(F)(F)F)cc2)cc1 [Example 262, (S)-N-[1-({2-[(4-Isopropoxy-benzyl)-methyl-amino]-ethyl}-methyl-carbamoyl)-2-phenyl-ethyl]-N-(4-morpholin-4-yl-benzyl)-3-(4-trifluoromethyl-phenyl)-acrylamide]
19	CCOCCN(C)C(=O)[C@H](Cc1ccccc1)N(Cc1ccc(N2CCOCC2)cc1)C(=O)C=Cc1ccc(C(F)(F)F)cc1 [Example 192, (S)-N-{1-[(2-Ethoxy-ethyl)-methyl-carbamoyl]-2-phenyl-ethyl}-N-(4-morpholin-4-yl-benzyl)-3-(4-trifluoromethyl-phenyl)-acrylamide]
39	CN(CCN(C)C(=O)[C@H](Cc1ccccc1)N(Cc1ccc(N2CCOCC2)cc1)C(=O)C=Cc1ccc(C(F)(F)F)cc1)Cc1ccc(O)cc1 [Example 256, (S)-N-[1-({2-[(4-Hydroxy-benzyl)-methyl-amino]-ethyl}-methyl-carbamoyl)-2-phenyl-ethyl]-N-(4-morpholin-4-yl-benzyl)-3-(4-trifluoromethyl-phenyl)-acrylamide]
296	COCCN(C)C(=O)[C@H](Cc1ccccc1)N(Cc1ccc(-c2cncnc2)cc1)C(=O)C=Cc1cc(C)on1 [Example 123, (S)-N-{1-[(2-Methoxy-ethyl)-methyl-carbamoyl]-2-phenyl-ethyl}-3-(5-methyl-isoxazol-3-yl)-N-(4-pyrimidin-5-yl-benzyl)-acrylamide]
19	CC(=O)N1CCN(c2ccc(CN(C(=O)C=Cc3ccc(C(F)(F)F)cc3)[C@@H](Cc3ccccc3)C(=O)N(C)CCN(C)Cc3ccncc3)cc2)CC1 [Example 253, (S)-N-[4-(4-Acetyl-piperazin-1-yl)-benzyl]-N-(1-{methyl-[2-(methyl-pyridin-4-ylmethyl-amino)-ethyl]-carbamoyl}-2-phenyl-ethyl)-3-(4-trifluoromethyl-phenyl)-acrylamide]
98	COCCN(C)C(=O)[C@H](Cc1ccccc1)N(Cc1ccc(-c2ccncc2)cc1)C(=O)C=Cc1csnn1 [Example 98, (S)-N-{1-[(2-Methoxy-ethyl)-methyl-carbamoyl]-2-phenyl-ethyl}-N-(4-pyridin-4-yl-benzyl)-3-[1,2,3]thiadiazol-4-yl-acrylamide]
58	CN(CCN(C)C(=O)[C@H](Cc1ccccc1)N(Cc1ccc(N2CCOCC2)cc1)C(=O)C=Cc1ccc(C(F)(F)F)cc1)Cc1ccc2c(c1)OCO2 [Example 266, (S)-N-(1-{[2-(Benzo[1,3]dioxol-5-ylmethyl-methyl-amino)-ethyl]-methyl-carbamoyl}-2-phenyl-ethyl)-N-(4-morpholin-4-yl-benzyl)-3-(4-trifluoromethyl-phenyl)-acrylamide]
9	COc1ccc(CN(C)CCN(C)C(=O)[C@H](Cc2ccccc2)N(Cc2ccc(-c3ccccn3)cc2)C(=O)C=Cc2ccc(C(F)(F)F)cc2)cn1 [Example 229, (S)-N-[1-({2-[(6-Methoxy-pyridin-3-ylmethyl)-methyl-amino]-ethyl}-methyl-carbamoyl)-2-phenyl-ethyl]-N-(4-pyridin-2-yl-benzyl)-3-(4-trifluoromethyl-phenyl)-acrylamide]
36	CN(CCN(C)C(=O)[C@H](Cc1ccccc1)N(Cc1ccc(N2CCOCC2)cc1)C(=O)C=Cc1ccc(C(F)(F)F)cc1)Cc1nccs1 [Example 265, (S)-N-(1-{Methyl-[2-(methyl-thiazol-2-ylmethyl-amino)-ethyl]-carbamoyl}-2-phenyl-ethyl)-N-(4-morpholin-4-yl-benzyl)-3-(4-trifluoromethyl-phenyl)-acrylamide]
30	CN(CCN(C)C(=O)[C@H](Cc1ccccc1)N(Cc1ccc(-c2ccccn2)cc1)C(=O)C=Cc1ccc(C(F)(F)F)cc1)Cc1cccnc1 [Example 231, (S)-N-(1-{Methyl-[2-(methyl-pyridin-3-ylmethyl-amino)-ethyl]-carbamoyl}-2-phenyl-ethyl)-N-(4-pyridin-2-yl-benzyl)-3-(4-trifluoromethyl-phenyl)-acrylamide]
32	CN(CCOCc1ccc(OC(F)F)cc1)C(=O)[C@H](Cc1ccccc1)N(Cc1ccc(N2CCOCC2)cc1)C(=O)C=Cc1ccc(C(F)(F)F)cc1 [Example 201, (S)-N-(1-{[2-(4-Difluoromethoxy-benzyloxy)-ethyl]-methyl-carbamoyl}-2-phenyl-ethyl)-N-(4-morpholin-4-yl-benzyl)-3-(4-trifluoromethyl-phenyl)-acrylamide]
45	COCCN(C)C(=O)[C@H](Cc1ccccc1)N(Cc1ccc(N2CCN(C(C)=O)CC2)cc1)C(=O)C=Cc1cc(C)nn1C [Example 104, (S)-N-[4-(4-Acetyl-piperazin-1-yl)-benzyl]-3-(2,5-dimethyl-2H-pyrazol-3-yl)-N-{1-[(2-methoxy-ethyl)-methyl-carbamoyl]-2-phenyl-ethyl}-acrylamide]

Same assay, conditions: Plasmodium falciparum, K1, read-out: IC50 (nM) on K1

Structure (SMILES)	IC50 [nM]
CCN(CC)CCCC(C)Nc1ccnc2cc(Cl)ccc12 (centres unmarked) [Chloroquine]	194
